# Patent US9012635B2, “Pyridone amides and analogs exhibiting anti-cancer and anti-proliferative activities” (Deciphera Pharmaceuticals, LLC, priority 2013, dated 2015)
# Where a name gives a salt, the structure may show the parent alone.
# How the values were obtained:
# Type in all cases: biochemical
# [1] = target: KDR kinase (Seq ID No. 3) (Homo sapiens, UniProt P35968, DEL940-989/E990V); assay: KDR kinase assay (assays K1, K2, K3); settings: enzymatic assay; variant K1, K2 or K3 not given
# Description: The activity of KDR kinase was determined by following the production of ADP from the kinase reaction through coupling with the pyruvate kinase/lactate dehydrogenase system (e.g., Schindler et al. Science 2000, 289, pp. 1938-1942). In this assay, the oxidation of NADH (thus the decrease at A340 nm) was continuously monitored spectrophotometrically. The reaction mixture (100 μl) contained KDR (Seq ID No. 3, 1.5 nM to 7.1 nM, nominal concentration), polyE4Y (1 mg/mL), pyruvate kinase (3.5 units), lactate dehydrogenase (5.5 units), phosphoenolpyruvate (1 mM), and NADH (0.28 mM) in 60 mM Tris buffer containing 0.13% octyl-glucoside, 13 mM MgCl2, 6.8 mM DTT, test compound, and 3.5% DMSO at pH 7.5. The reaction was initiated by adding ATP (0.2 mM, final concentration). The absorption at 340 nm was continuously monitored for 3 h at 30° C. on a Polarstar Optima plate reader (BMG) or instrument of similar capacity. The reaction rate was calculated using the 1 h to 2 h time frame. Percent inhibition was obtained by comparison of reaction rate with that of a control (i.e., with no test compound). IC50 values were calculated from a series of percent inhibition values determined at a range of inhibitor concentrations using software routines as implemented in the GraphPad Prism software package.
# KDR kinase assay K2 is the same as for assay K1 except that (1) a nominal concentration of 2.1 nM of enzyme was employed (2) the reaction was pre-incubated with test compound at 30° C. for 2 h prior to initiation with ATP and (3) 1.0 mM ATP (final concentration) was used to initiate the reaction.
# KDR kinase assay K3 is the same as for assay K1 except that (1) a nominal concentration of 1.1 nM of enzyme was employed, (2) the buffer components per 100 μl reaction mixture were as follows: 75 mM Tris buffer containing 0.066% octyl-glucoside, 17 mM MgCl2, and 1% DMSO at pH 7.5, (3) the final concentration of DTT was 0.66 mM, (4) the reaction was pre-incubated with test compound at 30° C. for 1 h prior to initiation with ATP, and (5) 1.0 mM ATP (final concentration) was used to initiate the reaction.
# [2] = target: T1, c-MET kinase (Seq. ID No. 2) (Homo sapiens, UniProt P08581); assay: c-MET kinase assay (pyruvate kinase/lactate dehydrogenase coupled, A340); settings: enzymatic assay, 0.5 h pre-incubation, ATP 100 μM; read-out: cMET
# T1 construct: c-MET (c-MET residues: 956-1390, from Invitrogen, catalogue #PV3143, 6 nM); purchased Invitrogen PV3143
# T1 sequence (P08581 with tags, fused parts or gaps): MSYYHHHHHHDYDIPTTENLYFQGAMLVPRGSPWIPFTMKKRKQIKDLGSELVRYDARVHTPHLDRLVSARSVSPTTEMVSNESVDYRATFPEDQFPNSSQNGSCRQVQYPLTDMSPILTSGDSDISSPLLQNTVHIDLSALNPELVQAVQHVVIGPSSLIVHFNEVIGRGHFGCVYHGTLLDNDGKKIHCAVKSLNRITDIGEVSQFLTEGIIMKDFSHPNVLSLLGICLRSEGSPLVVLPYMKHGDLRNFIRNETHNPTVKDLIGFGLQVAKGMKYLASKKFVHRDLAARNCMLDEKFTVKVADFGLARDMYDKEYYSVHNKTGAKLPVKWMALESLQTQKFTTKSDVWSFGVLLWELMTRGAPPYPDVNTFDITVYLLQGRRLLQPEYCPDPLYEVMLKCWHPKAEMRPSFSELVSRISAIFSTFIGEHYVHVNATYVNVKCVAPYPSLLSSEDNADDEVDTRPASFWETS
# Description: Activity of c-MET kinase (Seq. ID No. 2) was determined by following the production of ADP from the kinase reaction through coupling with the pyruvate kinase/lactate dehydrogenase system (e.g., Schindler et al. Science 2000, 289, pp. 1938-1942). In this assay, the oxidation of NADH (thus the decrease at A340 nm) was continuously monitored spectrophotometrically. The reaction mixture (100 μl) contained c-MET (c-MET residues: 956-1390, from Invitrogen, catalogue #PV3143, 6 nM), polyE4Y (1 mg/mL), MgCl2 (10 mM), pyruvate kinase (4 units), lactate dehydrogenase (0.7 units), phosphoenol pyruvate (1 mM), and NADH (0.28 mM) in 90 mM Tris buffer containing 0.25 mM DTT, 0.2% octyl-glucoside and 1% DMSO, pH 7.5. Test compounds were incubated with c-MET (Seq. ID No. 2) and other reaction reagents at 22° C. for 0.5 h before ATP (100 μM) was added to start the reaction. The absorption at 340 nm was monitored continuously for 2 hours at 30° C. on Polarstar Optima plate reader (BMG). The reaction rate was calculated using the 1.0 to 2.0 h time frame. Percent inhibition was obtained by comparison of reaction rate with that of a control (i.e., with no test compound). IC50 values were calculated from a series of percent inhibition values determined at a range of inhibitor concentrations using software routines as implemented in the GraphPad Prism software package.
# FMS kinase = target: T2, FMS kinase (Homo sapiens, UniProt P07333); assay: FMS kinase assay (pyruvate kinase/lactate dehydrogenase coupled, A340); settings: enzymatic assay, ATP 500 μM
# T2 construct: purchased Millipore
# T2 sequence (P07333 538-972): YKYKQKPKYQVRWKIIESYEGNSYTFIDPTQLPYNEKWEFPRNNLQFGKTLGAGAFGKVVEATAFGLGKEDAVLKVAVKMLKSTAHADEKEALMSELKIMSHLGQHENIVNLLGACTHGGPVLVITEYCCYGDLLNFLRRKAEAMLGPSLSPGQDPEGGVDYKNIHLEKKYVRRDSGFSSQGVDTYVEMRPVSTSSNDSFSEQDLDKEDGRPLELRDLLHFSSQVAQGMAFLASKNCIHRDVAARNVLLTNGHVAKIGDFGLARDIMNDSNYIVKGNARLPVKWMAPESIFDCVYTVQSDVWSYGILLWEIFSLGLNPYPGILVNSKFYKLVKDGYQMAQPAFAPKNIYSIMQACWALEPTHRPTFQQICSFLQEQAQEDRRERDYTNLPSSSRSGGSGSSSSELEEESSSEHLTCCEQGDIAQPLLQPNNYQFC
# Description: Activity of FMS kinase was determined by following the production of ADP from the FMS kinase reaction with ATP and poly E4Y as substrates through coupling with the pyruvate kinase/lactate dehydrogenase system (e.g., Schindler et al. Science (2000) 289: 1938-1942). In this assay, the oxidation of NADH (thus the decrease at A340 nm) was continuously monitored spectrophometrically. The reaction mixture (100 μl) contained FMS (purchased from Millipore) (10 nM), polyE4Y (1 mg/mL), MgCl2 (10 mM), pyruvate kinase (4 units), lactate dehydrogenase (0.7 units), phosphoenol pyruvate (1 mM), and NADH (0.28 mM) and ATP (500 μM) in 90 mM Tris buffer containing 0.2% octyl-glucoside and 1% DMSO, pH 7.5. Immediately, the inhibition reaction was started by mixing serial diluted test compound with the above reaction mixture. The absorption at 340 nm was monitored continuously for 4 hours at 30° C. on Synergy 2 plate reader. The reaction rate was calculated using the 3 to 4 h time frame. Percent inhibition was obtained by comparison of reaction rate with that of a control (i.e. in the absence of test compound). IC50 values were calculated from a series of percent inhibition values determined at a range of inhibitor concentrations using software routines as implemented in the GraphPad Prism software package.
# Chain of KDR kinase (Seq ID No. 3) (P35968 with tags, fused parts or gaps DEL940-989/E990V): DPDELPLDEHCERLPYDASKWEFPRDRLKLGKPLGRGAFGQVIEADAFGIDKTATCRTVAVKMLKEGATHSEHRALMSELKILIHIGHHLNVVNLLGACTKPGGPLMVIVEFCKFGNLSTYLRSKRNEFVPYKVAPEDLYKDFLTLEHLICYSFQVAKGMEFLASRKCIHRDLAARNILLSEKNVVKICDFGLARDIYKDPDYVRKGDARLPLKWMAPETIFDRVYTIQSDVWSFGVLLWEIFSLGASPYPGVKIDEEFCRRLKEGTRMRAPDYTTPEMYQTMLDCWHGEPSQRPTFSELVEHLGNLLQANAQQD
IC50 [1],IC50 [2],IC50 (FMS kinase),SMILES
> 1000 nM,≤ 100 nM,≤ 100 nM,"Cn1cc(-c2cc(Oc3cc(F)c(NC(=O)c4cccn(-c5ccc(F)cc5)c4=O)cc3F)ccn2)cn1 [Example 1, N-(2,5-difluoro-4-((2-(1-methyl-1H-pyrazol-4-yl)pyridin-4-yl)oxy)phenyl)-1-(4-fluorophenyl)-2-oxo-1,2-dihydropyridine-3-carboxamide]"
> 1000 nM,≤ 100 nM,100 to 1000 nM,"CCOc1ccn(-c2ccc(F)cc2)c(=O)c1C(=O)Nc1cc(F)c(Oc2ccnc(-c3cnn(C)c3)c2)cc1F [Example 2, N-(2,5-difluoro-4-(2-(1-methyl-1H-pyrazol-4-yl)pyridin-4-yloxy)phenyl)-4-ethoxy-1-(4-fluorophenyl)-2-oxo-1,2-dihydropyridine-3-carboxamide]"
> 1000 nM,≤ 100 nM,≤ 100 nM,"O=C(Nc1cc(F)c(Oc2ccnc(-c3cnn(CCO)c3)c2)cc1F)c1cccn(-c2ccc(F)cc2)c1=O [Example 3, N-(2,5-difluoro-4-((2-(1-(2-hydroxyethyl)-1H-pyrazol-4-yl)pyridin-4-yl)oxy)phenyl)-1-(4-fluorophenyl)-2-oxo-1,2-dihydropyridine-3-carboxamide hydrochloride]"
> 1000 nM,≤ 100 nM,100 to 1000 nM,"CCNc1ccn(-c2ccc(F)cc2)c(=O)c1C(=O)Nc1cc(F)c(Oc2ccnc(-c3cnn(C)c3)c2)cc1F [Example 5, N-(2,5-difluoro-4-((2-(1-methyl-1H-pyrazol-4-yl)pyridin-4-yl)oxy)phenyl)-4-(ethylamino)-1-(4-fluorophenyl)-2-oxo-1,2-dihydropyridine-3-carboxamide]"
